{"source": "ChEMBL document CHEMBL1129817", "about": "“Novel water-soluble analogues retaining potent antitumor activity of RA-VII, a cyclic hexapeptide from Rubia plants” (Bioorg Med Chem Lett, 1997)", "key": {"[1]": {"system": "KB", "experiment": "Compound was evaluated for cytotoxicity against human epidermoid carcinoma of nasopharynx (KB) cells", "type": "functional, cell-based"}, "[2]": {"system": "KATO III stomach cancer cell line", "experiment": "Compound was evaluated for cytotoxicity against KATO-III gastric carcinoma cells", "type": "functional, cell-based", "settings": "Homo sapiens"}, "[3]": {"system": "L1210", "experiment": "Compound was evaluated for cytotoxicity against L1210 leukemia cells", "type": "functional, cell-based", "settings": "Mus musculus"}, "[4]": {"system": "Colon 26", "experiment": "Compound was evaluated for percent tumor volume against colon 26 cells in mice (T) at a dose of 3.13 mg/kg intravenous administration after 10 days ot that of control (C)", "type": "functional, Mus musculus"}, "[5]": {"system": "P388", "experiment": "Percentage of the median survival time of P388 leukemic mice (T) at intraperitoneal administration of 1.6 mg/kg dose to that of controls (C)", "type": "functional, Mus musculus"}, "[6]": {"system": "Colon 26", "experiment": "Compound was evaluated for percent tumor volume against colon 26 cells in mice (T) at a dose of 1.6 mg/kg intravenous administration after 10 days ot that of control (C)", "type": "functional, Mus musculus"}, "[7]": {"system": "Colon 26", "experiment": "Compound was evaluated for percent tumor volume against colon 26 cells in mice (T) at a dose of 3.13 mg/kg intravenous administration after 12 days ot that of control (C)", "type": "functional, Mus musculus"}, "[8]": {"system": "B16", "experiment": "Compound was evaluated for percent tumor volume against B16 melanoma in mice (T) at 3.13 mg/kg intravenous administration after 8 days ot that of control (C)", "type": "functional, Mus musculus", "settings": "3.13 mg/kg"}, "[9]": {"system": "B16", "experiment": "Compound was evaluated for percent tumor volume against B16 melanoma in mice (T) at 1.6 mg/kg intravenous administration after 8 days ot that of control (C)", "type": "functional, Mus musculus"}, "[10]": {"system": "P388", "experiment": "Percentage of the median survival time of P388 leukemic mice (T) at intraperitoneal administration of 6.25 mg/kg dose to that of controls (C)", "type": "functional, Mus musculus"}, "[11]": {"system": "Colon 26", "experiment": "Compound was evaluated for percent tumor volume against colon 26 cells in mice (T) at a dose of 3.13 mg/kg intravenous administration after 8 days ot that of control (C)", "type": "functional, Mus musculus"}, "[12]": {"system": "B16", "experiment": "Compound was evaluated for percent tumor volume against B16 melanoma in mice (T) at 1.6 mg/kg intravenous administration after 13 days ot that of control (C)", "type": "functional, Mus musculus"}, "[13]": {"system": "Colon 26", "experiment": "Compound was evaluated for percent tumor volume against colon 26 cells in mice (T) at a dose of 1.6 mg/kg intravenous administration after 8 days ot that of control (C)", "type": "functional, Mus musculus"}, "[14]": {"system": "B16", "experiment": "Compound was evaluated for percent tumor volume against B16 melanoma in mice (T) at 3.13 mg/kg intravenous administration after 11 days ot that of control (C)", "type": "functional, Mus musculus"}, "[15]": {"system": "Colon 26", "experiment": "Compound was evaluated for percent tumor volume against colon 26 cells in mice (T) at a dose of 1.6 mg/kg intravenous administration after 12 days ot that of control (C)", "type": "functional, Mus musculus"}, "[16]": {"system": "Colon 26", "experiment": "Compound was evaluated for percent tumor volume against colon 26 cells in mice (T) at a dose of 0.8 mg/kg intravenous administration after 8 days ot that of control (C)", "type": "functional, Mus musculus"}, "[17]": {"system": "B16", "experiment": "Compound was evaluated for percent tumor volume against B16 melanoma in mice (T) at 1.6 mg/kg intravenous administration after 11 days ot that of control (C)", "type": "functional, Mus musculus"}, "[18]": {"system": "Colon 26", "experiment": "Compound was evaluated for percent tumor volume against colon 26 cells in mice (T) at a dose of 0.8 mg/kg intravenous administration after 10 days ot that of control (C)", "type": "functional, Mus musculus"}, "[19]": {"system": "P388", "experiment": "Percentage of the median survival time of P388 leukemic mice (T) at intraperitoneal administration of 0.4 mg/kg dose to that of controls (C)", "type": "functional, Mus musculus"}, "[20]": {"system": "Colon 26", "experiment": "Compound was evaluated for percent tumor volume against colon 26 cells in mice (T) at a dose of 0.8 mg/kg intravenous administration after 12 days ot that of control (C)", "type": "functional, Mus musculus"}}, "note": "Several values for one entry are separate records, joined by “and”; a condition that tells them apart may be missing. Equal values may be shown once."}
{"smiles": "COc1ccc(C[C@H]2C(=O)N[C@@H](C)C(=O)N(C)[C@H]3Cc4cccc(c4)Oc4cc(ccc4OCCN(C(C)C)C(C)C)C[C@@H](C(=O)N[C@H](C)C(=O)N[C@@H](C)C(=O)N2C)N(C)C3=O)cc1", "note": "[listing 1 of 2 here]", "values": [{"measurement": "IC50", "setting": "[1]", "value": 4.6, "unit": "ng/mL"}, {"measurement": "IC50", "setting": "[2]", "value": 1.5, "unit": "ng/mL"}, {"measurement": "IC50", "setting": "[3]", "value": 4.5, "unit": "ng/mL"}]}
{"smiles": "COc1ccc(C[C@H]2C(=O)N[C@@H](C)C(=O)N(C)[C@H]3Cc4cccc(c4)Oc4cc(ccc4OCCN(Cc4ccccc4)Cc4ccccc4)C[C@@H](C(=O)N[C@H](C)C(=O)N[C@@H](C)C(=O)N2C)N(C)C3=O)cc1", "note": "[listing 1 of 2 here]", "values": [{"measurement": "IC50", "setting": "[1]", "value": 59, "unit": "ng/mL"}]}
{"smiles": "COc1ccc(C[C@H]2C(=O)N[C@@H](C)C(=O)N(C)[C@H]3Cc4cccc(c4)Oc4cc(ccc4OCCN(C(C)C)C(C)C)C[C@@H](C(=O)N[C@H](C)C(=O)N[C@@H](C)C(=O)N2C)N(C)C3=O)cc1", "note": "[listing 2 of 2 here]", "values": [{"measurement": "T/C", "setting": "[4]", "value": 38.5, "unit": "%"}, {"measurement": "T/C", "setting": "[5]", "value": 157, "unit": "%"}, {"measurement": "T/C", "setting": "[6]", "value": 57.1, "unit": "%"}, {"measurement": "T/C", "setting": "[7]", "value": 99.6, "unit": "%"}, {"measurement": "T/C", "setting": "[8]", "value": "57.5% and 32.1%"}, {"measurement": "T/C", "setting": "[9]", "value": 55.9, "unit": "%"}, {"measurement": "T/C", "setting": "[10]", "value": 170, "unit": "%"}, {"measurement": "T/C", "setting": "[11]", "value": 34.5, "unit": "%"}, {"measurement": "T/C", "setting": "[12]", "value": 69.7, "unit": "%"}, {"measurement": "T/C", "setting": "[13]", "value": 41.5, "unit": "%"}, {"measurement": "T/C", "setting": "[14]", "value": 32.1, "unit": "%"}, {"measurement": "T/C", "setting": "[15]", "value": 143.1, "unit": "%"}, {"measurement": "T/C", "setting": "[16]", "value": 42.1, "unit": "%"}, {"measurement": "T/C", "setting": "[17]", "value": 43.3, "unit": "%"}, {"measurement": "T/C", "setting": "[18]", "value": 83.4, "unit": "%"}, {"measurement": "T/C", "setting": "[19]", "value": 151, "unit": "%"}, {"measurement": "T/C", "setting": "[20]", "value": 136.3, "unit": "%"}]}
{"smiles": "COc1ccc(C[C@H]2C(=O)N[C@@H](C)C(=O)N(C)[C@H]3Cc4cccc(c4)Oc4cc(ccc4OC)C[C@@H](C(=O)N[C@H](C)C(=O)N[C@@H](C)C(=O)N2C)N(C)C3=O)cc1", "values": [{"measurement": "IC50", "setting": "[1]", "value": 2.3, "unit": "ng/mL"}, {"measurement": "IC50", "setting": "[2]", "value": 2.9, "unit": "ng/mL"}, {"measurement": "IC50", "setting": "[3]", "value": 1.2, "unit": "ng/mL"}]}
{"smiles": "CCN(CC)CCOc1ccc2cc1Oc1cccc(c1)C[C@H]1C(=O)N(C)[C@@H](C2)C(=O)N[C@H](C)C(=O)N[C@@H](C)C(=O)N(C)[C@@H](Cc2ccc(OC)cc2)C(=O)N[C@@H](C)C(=O)N1C", "note": "[listing 1 of 2 here]", "values": [{"measurement": "T/C", "setting": "[5]", "value": 124, "unit": "%"}, {"measurement": "T/C", "setting": "[10]", "value": 136, "unit": "%"}, {"measurement": "T/C", "setting": "[19]", "value": 116, "unit": "%"}]}
{"smiles": "COc1ccc(C[C@H]2C(=O)N[C@@H](C)C(=O)N(C)[C@H]3Cc4cccc(c4)Oc4cc(ccc4OCCN4CCCCC4)C[C@@H](C(=O)N[C@H](C)C(=O)N[C@@H](C)C(=O)N2C)N(C)C3=O)cc1", "values": [{"measurement": "IC50", "setting": "[1]", "value": 8.7, "unit": "ng/mL"}]}
{"smiles": "CCN(CC)CCOc1ccc2cc1Oc1cccc(c1)C[C@H]1C(=O)N(C)[C@@H](C2)C(=O)N[C@H](C)C(=O)N[C@@H](C)C(=O)N(C)[C@@H](Cc2ccc(OC)cc2)C(=O)N[C@@H](C)C(=O)N1C", "note": "[listing 2 of 2 here]", "values": [{"measurement": "IC50", "setting": "[1]", "value": 10, "unit": "ng/mL"}]}
{"smiles": "COc1ccc(C[C@H]2C(=O)N[C@@H](C)C(=O)N(C)[C@H]3Cc4cccc(c4)Oc4cc(ccc4OCCN4CCCC4)C[C@@H](C(=O)N[C@H](C)C(=O)N[C@@H](C)C(=O)N2C)N(C)C3=O)cc1", "values": [{"measurement": "IC50", "setting": "[1]", "value": 19, "unit": "ng/mL"}]}
{"smiles": "COc1ccc(C[C@H]2C(=O)N[C@@H](C)C(=O)N(C)[C@H]3Cc4cccc(c4)Oc4cc(ccc4OCCN(Cc4ccccc4)Cc4ccccc4)C[C@@H](C(=O)N[C@H](C)C(=O)N[C@@H](C)C(=O)N2C)N(C)C3=O)cc1", "note": "[listing 2 of 2 here]", "values": [{"measurement": "Activity", "setting": "[5]", "value": 119, "unit": "%"}, {"measurement": "Activity", "setting": "[10]", "value": 134, "unit": "%"}, {"measurement": "Activity", "setting": "[19]", "value": 105, "unit": "%"}]}
{"smiles": "CCN(CCOc1ccc2cc1Oc1cccc(c1)C[C@H]1C(=O)N(C)[C@@H](C2)C(=O)N[C@H](C)C(=O)N[C@@H](C)C(=O)N(C)[C@@H](Cc2ccc(OC)cc2)C(=O)N[C@@H](C)C(=O)N1C)c1ccccc1", "values": [{"measurement": "T/C", "setting": "[5]", "value": 133, "unit": "%"}, {"measurement": "T/C", "setting": "[10]", "value": 150, "unit": "%"}, {"measurement": "T/C", "setting": "[19]", "value": 116, "unit": "%"}]}
